Assay results: patent publication US5627270A, “Glycosylated steroid derivatives for transport across biological membranes and process for making and using same” (Trustees of Princeton University, priority 1994, dated 1997)
“Also recorded” adds a separate entry of the source. Like-named read-outs stand apart in the source and are kept apart here.

Legend:
[1] = ASSAY I: leakage of carboxyfluorescein from vesicles; type: biochemical; details: for efficacy in permeabilizing phospholipid membranes: concentrations required for >50% leakage taken as measure
[2] = ASSAY II: proton transport across lipid membranes; type: biochemical
[3] = system: DH2 cells (a mutant strain of E. coli K-12); type: cell-based; details: for EFFECT (enhancement of erythromycin): compound 20 mM; on EFFECT (enhancement of erythromycin): key: --: erythromycin alone at 1.0 mM (baseline) and all lesser effects; +: enhancement relative to baseline; +++: significant enhancement relative to baseline
[4] = Plasma vancomycin after ileal co-administration in the rat
Crithidia fasciculate = assay: ASSAY IV: efficacy of antifungal agents on protozoa with and without added glycosylated steroid derivatives; type: cell-based
[5] = Plasma gentamicin after ileal co-administration in the rat; details: absence of 1
[6] = 0.000579 mM final concentration

C[C@H](CCC(=O)NC(Cc1c[nH]c2ccccc12)C(=O)O)[C@H]1CC[C@H]2[C@@H]3[C@H](O[C@H]4O[C@H](CO)[C@@H](O)[C@H](O)[C@H]4O)C[C@@H]4C[C@H](O)CC[C@]4(C)[C@H]3C[C@H](O[C@H]3O[C@H](CO)[C@@H](O)[C@H](O)[C@H]3O)[C@]12C (stereo partly drawn) [Entry 5, 3α-hydroxy-cis-5,10-bis-α,α-7,12-glucosyl-25-tryptophanyl cholic acid]
% increase in Fluorescence ([1]; 0.117 mM final concentration): 57.3% | % Decrease in Fluorescence ([2]; 0.00579 mM final concentration): 19.4% | % Decrease in Fluorescence ([2]; 0.0116 mM final concentration): 26.1%

C[C@H](CCC(=O)O)[C@H]1CC[C@H]2[C@@H]3[C@H](O)C[C@@H]4C[C@H](O)CC[C@]4(C)[C@H]3CC[C@]12C [Chenodeoxycholic Acid, reference compound]
enhancing effect on erythromycin ([3]; test compound 20 mM): did not have a detectable effect | % increase in Fluorescence ([1]; 0.117 mM final concentration): 17.7% | % increase in Fluorescence ([1]; 1.17 mM final concentration): 80.9% | efficacy in permeabilizing phospholipid membranes [1]: also permeabilize membranes in this assay, although at much higher concentrations | % Decrease in Fluorescence ([2]; 0.0116 mM final concentration): 8.2%

Gramicidin [reference compound]
% Decrease in Fluorescence [2, 6]: 81.6% | % Decrease in Fluorescence ([2]; 0.00579 mM final concentration): 87.2%

C[C@H](CCC(=O)O)[C@H]1CC[C@H]2[C@@H]3[C@H](O[C@H]4O[C@H](CO)[C@@H](O)[C@H](O)[C@H]4O)C[C@@H]4C[C@H](O)CC[C@]4(C)[C@H]3C[C@H](O[C@H]3O[C@H](CO)[C@@H](O)[C@H](O)[C@H]3O)[C@]12C [3α-OH-cis-5,10-bis-α,α-glucosyl cholic acid K^+]
EFFECT (enhancement of erythromycin) ([3]; erythromycin 0.5 mM): + | EFFECT (enhancement of erythromycin) ([3]; erythromycin 1.0 mM): +

CN[C@H](CC(C)C)C(=O)N[C@H]1C(=O)N[C@@H](CC(N)=O)C(=O)N[C@H]2C(=O)N[C@H]3C(=O)N[C@H](C(=O)N[C@H](C(=O)O)c4cc(O)cc(O)c4-c4cc3ccc4O)[C@H](O)c3ccc(c(Cl)c3)Oc3cc2cc(c3O[C@@H]2O[C@H](CO)[C@@H](O)[C@H](O)[C@H]2O[C@H]2C[C@](C)(N)[C@H](O)[C@H](C)O2)Oc2ccc(cc2Cl)[C@H]1O [Vancomycin]
clearance from the circulation ([4]; ileum versus IV): cleared more slowly from the circulation when administered via the ileum than via IV | Cmax ([4]; rat, in vivo, 5 mg): 5000 to 10000 ng/mL

COC(=O)CC[C@@H](C)[C@H]1CC[C@H]2[C@@H]3[C@H](O)C[C@@H]4C[C@H](O)CC[C@]4(C)[C@H]3C[C@H](O)[C@]12C [Methyl Cholate, reference compound]
% increase in Fluorescence ([1]; 0.117 mM final concentration): 25.4% | % Decrease in Fluorescence ([2]; 0.0116 mM final concentration): 5.4%

COC(=O)CC[C@@H](C)[C@H]1CC[C@H]2[C@@H]3[C@H](O[C@H]4O[C@H](CO)[C@@H](O)[C@H](O)[C@H]4O)C[C@H]4C[C@H](OC(=O)c5ccccc5)CC[C@]4(C)[C@H]3C[C@H](O[C@H]3O[C@H](CO)[C@@H](O)[C@H](O)[C@H]3O)[C@]12C [Entry 11, 3α-O-benzoyl-trans-5,10-bis-α,α-7,12-glucosyl cholic acid methyl ester]
EFFECT (enhancement of erythromycin) ([3]; erythromycin 0.5 mM): + | EFFECT (enhancement of erythromycin) ([3]; erythromycin 1.0 mM): + | % increase in Fluorescence ([1]; 0.117 mM final concentration): 98% | efficacy in permeabilizing phospholipid membranes [1]: the most effective glycosylated steroids tested | % Decrease in Fluorescence ([2]; 0.00585 mM final concentration): 14.7% | % Decrease in Fluorescence ([2]; 0.0116 mM final concentration): 22.0%

CCOC(=O)O[C@@H]1CC[C@@]2(C)[C@@H](C1)C[C@@H](O[C@H]1O[C@H](CO)[C@@H](O)[C@H](O)[C@H]1O)[C@@H]1[C@@H]2C[C@H](O[C@H]2O[C@H](CO)[C@@H](O)[C@H](O)[C@H]2O)[C@]2(C)[C@@H]([C@H](C)CCC(=O)OC)CC[C@@H]12 [Entry 1, 3α-ethylcarbonate-cis-5,10-bis-α,α-7,12-glucosyl cholic acid methyl ester]
% increase in Fluorescence ([1]; 0.117 mM final concentration): 0% | % Decrease in Fluorescence ([2]; 0.00579 mM final concentration): 4.3% | % Decrease in Fluorescence ([2]; 0.0116 mM final concentration): 7.6%

COC(=O)CC[C@@H](C)[C@H]1CC[C@H]2[C@@H]3[C@H](O[C@H]4O[C@H](CO)[C@@H](O)[C@H](O)[C@H]4O)C[C@@H]4C[C@H](O)CC[C@]4(C)[C@H]3C[C@H](O[C@H]3O[C@H](CO)[C@@H](O)[C@H](O)[C@H]3O)[C@]12C [Entry 4, 3α-hydroxy-cis-5,10-bis-α,α-7,12-glucosyl cholic acid methyl ester]
% increase in Fluorescence ([1]; 0.117 mM final concentration): 0% | % Decrease in Fluorescence ([2]; 0.00579 mM final concentration): 7.89% | % Decrease in Fluorescence ([2]; 0.0116 mM final concentration): 12.3%

COC(=O)CC[C@@H](C)[C@H]1CC[C@H]2[C@@H]3[C@H](O[C@H]4O[C@H](CO)[C@@H](O)[C@H](O)[C@H]4O)C[C@@H]4C[C@H](OC(=O)c5ccc(OC)cc5)CC[C@]4(C)[C@H]3C[C@H](O[C@H]3O[C@H](CO)[C@@H](O)[C@H](O)[C@H]3O)[C@]12C [Entry 8, 3α-O-p-methoxybenzoyl-cis-5,10-bis-α,α-7,12-glucosyl cholic acid methyl ester]
enhancement of antifungal efficacy (Crithidia fasciculate; with 10-TSA (thiastearic acid), listed as CME): enhancing effect; also recorded: enhances the efficacy of 10-TSA dramatically | enhancement of antifungal efficacy (Crithidia fasciculate; with 24-TC (thiacholestanol), listed as CME): enhancing effect; also recorded: enhance the efficacy of 24-TC | EFFECT (clearing) ([3]; compound 0.001 mM, erythromycin 0.01 mM): + | EFFECT (clearing) ([3]; compound 0.01 mM, erythromycin 0.01 mM): + | EFFECT (clearing) ([3]; compound 0.1 mM, erythromycin 0.01 mM): + | EFFECT (clearing) ([3]; compound 0.1 mM, erythromycin 0.1 mM): + | EFFECT (enhancement of erythromycin) ([3]; erythromycin 0.5 mM): +++ | EFFECT (enhancement of erythromycin) ([3]; erythromycin 1.0 mM): +++ | enhancing effect on erythromycin ([3]; lower concentrations (Table V)): acts as an enhancer at very low concentrations | enhancing effect on erythromycin ([3]; test compound 20 mM): the best "enhancer" in this assay | % increase in Fluorescence ([1]; 0.117 mM final concentration): 89.1% | efficacy in permeabilizing phospholipid membranes [1]: the most effective glycosylated steroids tested | efficacy in permeabilizing phospholipid membranes ([1]; listed as CME): a good membrane permeabilizing agent | % Decrease in Fluorescence ([2]; 0.00579 mM final concentration): 20.6% | % Decrease in Fluorescence ([2]; 0.0116 mM final concentration): 32.2%

C[C@H](CCC(=O)O)[C@H]1CC[C@H]2[C@@H]3[C@H](O[C@@H]4O[C@H](CO)[C@@H](O)[C@H](O)[C@H]4O)C[C@H]4C[C@H](O)CC[C@]4(C)[C@H]3C[C@H](O[C@@H]3O[C@H](CO)[C@@H](O)[C@H](O)[C@H]3O)[C@]12C [Entry 13, 3α-hydroxy-trans-5,10-bis-β,β-7,12-glucosyl cholic acid]
% increase in Fluorescence ([1]; 0.117 mM final concentration): 0% | % Decrease in Fluorescence [2, 6]: 2.8% | % Decrease in Fluorescence ([2]; 0.00579 mM final concentration): 35.2% | % Decrease in Fluorescence ([2]; 0.0116 mM final concentration): 70.6%

C[C@H](CCC(=O)O)[C@H]1CC[C@H]2[C@@H]3[C@H](O[C@@H]4O[C@H](CO)[C@@H](O)[C@H](O)[C@H]4O)C[C@@H]4C[C@H](O)CC[C@]4(C)[C@H]3C[C@H](O[C@@H]3O[C@H](CO)[C@@H](O)[C@H](O)[C@H]3O)[C@]12C [Entry 10, 3α-hydroxy-cis-5,10-bis-β,β-7,12-glucosyl cholic acid]
% increase in Fluorescence ([1]; 0.117 mM final concentration): 0%

COC(=O)CC[C@@H](C)[C@H]1CC[C@H]2[C@@H]3[C@H](O[C@H]4O[C@H](CO)[C@@H](O)[C@H](O)[C@H]4O)C[C@@H]4C[C@H](OC(=O)c5ccccc5)CC[C@]4(C)[C@H]3C[C@H](O[C@H]3O[C@H](CO)[C@@H](O)[C@H](O)[C@H]3O)[C@]12C [Entry 7, 3α-O-benzoyl-cis-5,10-bis-α,α-7,12-glucosyl cholic acid methyl ester]
% increase in Fluorescence ([1]; 0.117 mM final concentration): 89.1% | efficacy in permeabilizing phospholipid membranes [1]: the most effective glycosylated steroids tested | % Decrease in Fluorescence ([2]; 0.00579 mM final concentration): 15.2% | % Decrease in Fluorescence ([2]; 0.0116 mM final concentration): 19.8%

COC(=O)CC[C@@H](C)[C@H]1CC[C@H]2[C@@H]3[C@H](O[C@@H]4O[C@H](CO)[C@@H](O)[C@H](O)[C@H]4O)C[C@H]4C[C@H](OC(=O)c5ccccc5)CC[C@]4(C)[C@H]3C[C@H](O[C@@H]3O[C@H](CO)[C@@H](O)[C@H](O)[C@H]3O)[C@]12C [Entry 9, 3α-O-benzoyl-trans-5,10-bis-β,β-7,12-glucosyl cholic acid methyl ester]
% increase in Fluorescence ([1]; 0.117 mM final concentration): 24.5% | % Decrease in Fluorescence ([2]; 0.00579 mM final concentration): 27.4% | % Decrease in Fluorescence ([2]; 0.0116 mM final concentration): 43.0%

C[C@H](CCC(=O)O)[C@H]1CC[C@H]2[C@@H]3CC[C@@H]4C[C@H](O)CC[C@]4(C)[C@H]3C[C@H](O)[C@]12C [Deoxycholic Acid, reference compound]
EFFECT (enhancement of erythromycin) ([3]; erythromycin 0.5 mM): + | EFFECT (enhancement of erythromycin) ([3]; erythromycin 1.0 mM): + | enhancing effect on erythromycin ([3]; test compound 20 mM): showed any effect | efficacy in permeabilizing phospholipid membranes [1]: also permeabilize membranes in this assay, although at much higher concentrations

COC(=O)CC[C@@H](C)[C@H]1CC[C@H]2[C@@H]3[C@H](O)C[C@@H]4C[C@H](OC(=O)c5ccc(OC)cc5)CC[C@]4(C)[C@H]3C[C@H](O)[C@]12C [CDE, 3α-O-p-methoxybenzoyl-cis-5,10-cholic acid methyl ester, reference compound]
enhancement of antifungal efficacy (Crithidia fasciculate; with 24-TC (thiacholestanol)): lack of an enhancing effect; also recorded: not observed to act as an enhancer | enhancing effect on erythromycin ([3]; lower concentrations (Table V)): does not function as an enhancer

gentamicin
ileal bioavailability of gentamicin [5]: 10.7% | plasma concentrations of gentamicin ([5]; ileal, 5 mg antibiotic): 1000 to 7000 ng/mL

C[C@H](CCC(=O)O)[C@H]1CC[C@H]2[C@@H]3[C@H](O)C[C@@H]4C[C@H](O)CC[C@]4(C)[C@H]3C[C@H](O)[C@]12C [Cholic Acid, reference compound]
enhancing effect on erythromycin ([3]; test compound 20 mM): did not have a detectable effect | % increase in Fluorescence ([1]; 0.117 mM final concentration): 0% | % increase in Fluorescence ([1]; 2.341 mM final concentration): 59.1% | efficacy in permeabilizing phospholipid membranes [1]: also permeabilize membranes in this assay, although at much higher concentrations | % Decrease in Fluorescence [2]: 1.0%

C[C@H](CCC(=O)O)[C@H]1CC[C@H]2[C@@H]3[C@H](O[C@H]4O[C@H](CO)[C@@H](O)[C@H](O)[C@H]4O)C[C@@H]4C[C@H](O)CC[C@]4(C)[C@H]3C[C@H](O[C@H]3O[C@H](CO)[C@@H](O)[C@H](O)[C@H]3O)[C@]12C [Entry 3, 3α-hydroxy-cis-5,10-bis-α,α-7,12-glucosyl cholic acid]
% increase in Fluorescence ([1]; 2.34 mM final concentration): 0% | % Decrease in Fluorescence ([2]; 0.00579 mM final concentration): 21.0% | % Decrease in Fluorescence ([2]; 0.0116 mM final concentration): 35.4%
